# pIC50: −log10 of the molar value.
# How the values were obtained:
# Experiment in all cases: Enzyme inhibiting activity of MMPs, fluorogenic peptide substrate
# Assay type in all cases: biochemical
# MMP-13 = molecular target: T1, MMP-13 (Homo sapiens, UniProt P45452); settings: APMA-activated proenzyme; substrate MOCAc-Pro-Leu-Gly-Leu-A2Pr(DNP)-Ala-Arg-NH2, fluorescent intensity; read-out: IC50 MMP-13
# T1 construct: purchased Calbiochem (EMD/MERCK Biosciences)
# Method in brief: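 Pro-MMP-13 was activated with 1 mM APMA at 37° C for 2 h in 50 mM Tris-HCl pH 7.6, 0.3 M NaCl, 10 mM CaCl2, 0.005% Brij35. Activity was read by fluorescence using MOCAc-Pro-Leu-Gly-Leu-A2Pr(DNP)-Ala-Arg-NH2 substrate, with enzyme and inhibitor blank corrections. IC50 is the concentration giving 50% inhibition.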
# MMP-9 = molecular target: T2, MMP-9 (Homo sapiens, UniProt P14780); settings: substrate MOCAc-Pro-Leu-Gly-Leu-A2Pr(DNP)-Ala-Arg-NH2, fluorescent intensity
# T2 construct: purchased Calbiochem (EMD/MERCK Biosciences)
# T2 sequence (P14780 94-707): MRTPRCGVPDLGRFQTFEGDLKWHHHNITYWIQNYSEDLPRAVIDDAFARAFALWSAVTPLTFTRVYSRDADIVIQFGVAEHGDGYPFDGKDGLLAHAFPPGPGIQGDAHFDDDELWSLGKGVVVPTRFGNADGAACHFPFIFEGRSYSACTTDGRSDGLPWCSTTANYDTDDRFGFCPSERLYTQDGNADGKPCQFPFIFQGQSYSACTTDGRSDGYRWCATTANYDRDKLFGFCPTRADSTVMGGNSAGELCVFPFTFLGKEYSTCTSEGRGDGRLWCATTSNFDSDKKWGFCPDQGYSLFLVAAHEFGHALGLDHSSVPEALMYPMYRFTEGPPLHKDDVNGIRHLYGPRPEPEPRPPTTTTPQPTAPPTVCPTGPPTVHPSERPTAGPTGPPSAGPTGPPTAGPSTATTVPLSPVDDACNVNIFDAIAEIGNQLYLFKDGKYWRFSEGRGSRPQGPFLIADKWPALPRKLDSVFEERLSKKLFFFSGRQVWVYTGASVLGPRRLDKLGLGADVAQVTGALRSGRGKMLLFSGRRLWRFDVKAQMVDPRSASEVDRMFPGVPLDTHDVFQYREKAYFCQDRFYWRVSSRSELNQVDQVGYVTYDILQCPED
# Method in brief: (§1)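 Recombinant human enzymes with the fluorogenic substrate MOCAc-Pro-Leu-Gly-Leu-A2Pr(DNP)-Ala-Arg-NH2. Fluorescence was read for enzyme+substrate±inhibitor and substrate±inhibitor blanks.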
# MMP-2 = molecular target: T3, MMP-2 (Homo sapiens, UniProt P08253); settings: substrate MOCAc-Pro-Leu-Gly-Leu-A2Pr(DNP)-Ala-Arg-NH2, fluorescent intensity
# T3 construct: purchased Calbiochem (EMD/MERCK Biosciences)
# T3 sequence (P08253 110-660): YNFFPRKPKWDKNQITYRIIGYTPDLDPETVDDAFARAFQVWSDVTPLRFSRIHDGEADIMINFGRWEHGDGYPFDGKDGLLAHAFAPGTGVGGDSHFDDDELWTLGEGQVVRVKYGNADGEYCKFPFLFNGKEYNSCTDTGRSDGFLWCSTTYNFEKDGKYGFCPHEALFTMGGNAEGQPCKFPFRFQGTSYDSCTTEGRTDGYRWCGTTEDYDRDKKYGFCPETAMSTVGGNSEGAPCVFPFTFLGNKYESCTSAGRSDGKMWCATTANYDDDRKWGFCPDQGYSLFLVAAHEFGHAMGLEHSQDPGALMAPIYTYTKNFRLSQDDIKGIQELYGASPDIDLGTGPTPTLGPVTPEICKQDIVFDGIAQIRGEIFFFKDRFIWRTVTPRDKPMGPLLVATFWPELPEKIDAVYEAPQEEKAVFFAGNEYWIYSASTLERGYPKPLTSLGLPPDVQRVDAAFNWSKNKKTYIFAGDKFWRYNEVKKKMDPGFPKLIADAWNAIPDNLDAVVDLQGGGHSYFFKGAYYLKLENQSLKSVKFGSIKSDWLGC
# Method in brief: as §1
smiles,measurement,setting,value
"CC(=O)Nc1cccc(-c2csc(C#Cc3ccc(N4CCN(S(=O)(=O)N[C@@H](C(=O)O)C(C)C)CC4)cc3)n2)c1 [Compound V-86, (R)-2-(4-{4-[4-(3-acetylaminophenyl)-thiazol-2-ylethynyl]-phenyl}-piperazine-1-sulfonylamino)-3-methylbutanoic acid]",pIC50,MMP-13,7.92
same,pIC50,MMP-9,< 5.00
same,pIC50,MMP-2,5.00 to 6.00
"CC(C)[C@@H](NS(=O)(=O)N1CCN(c2ccc(C#Cc3ccc4ccnc(C(N)=O)c4c3)cc2)CC1)C(=O)O [Compound V-88, (R)-2-{4-[4-(1-carbamoylisoquinolin-7-ylethynyl)-phenyl]-piperazine-1-sulfonylamino}-3-methylbutanoic acid]",pIC50,MMP-13,7.62
same,pIC50,MMP-9,< 5.00
same,pIC50,MMP-2,5.00 to 6.00
"C[C@@H](NS(=O)(=O)N1CCN(c2ccc(C#Cc3ccnc(C(=O)NCc4ccc(Cl)cc4)c3)cc2)CC1)C(=O)O [III-1, (R)-2-(4-{4-[2-(4-chrolobenzylcarbamoyl)-pyridin-4-ylethynyl]-phenyl}-piperazine-1-sulfonylamino)-proponic acid]",pIC50,MMP-13,8.52
same,pIC50,MMP-9,< 5.00
same,pIC50,MMP-2,5.00 to 6.00
"COCCOc1ccc(C#Cc2ccc(N3CCN(S(=O)(=O)N[C@@H](C(=O)O)C(C)C)CC3)cc2)cc1C(=O)NCC#N [III-2, (R)-2-(4-{4-[3-(cyanomethylcarbamoyl)-4-(2-methoxyethoxy)-phenylethynyl]-phenyl}-piperazine-1-sulfonylamino)-3-methylbutanoic acid]",pIC50,MMP-13,8.05
same,pIC50,MMP-9,< 5.00
same,pIC50,MMP-2,5.00 to 6.00
"C[C@@H](NS(=O)(=O)N1CCN(c2ccc(C#Cc3cc(C(=O)NCc4ccccc4)c(=O)n(C)c3)cc2)CC1)C(=O)O [III-4, (R)-2-{4-[4-(5-benzylcarbamoyl-1-methyl-6-oxo-1,6-dihydropyridin-3-ylethynyl)-phenyl]-piperazine-1-sulfonylamino}-proponic acid]",pIC50,MMP-13,8.22
same,pIC50,MMP-9,< 5.00
same,pIC50,MMP-2,5.00 to 6.00
"C[C@@H](NS(=O)(=O)N1CCN(c2ccc(C#Cc3ccc4ccn(Cc5ccccc5)c(=O)c4c3)cc2)CC1)C(=O)O [III-5, (R)-2-{4-[4-(2-benzyl-1-oxo-1,2-dihydroisoquinolin-7-ylethynyl)-phenyl]-piperazine-1-sulfonylamino}-proponic acid]",pIC50,MMP-13,8.30
same,pIC50,MMP-9,< 5.00
same,pIC50,MMP-2,5.00 to 6.00
"CC(C)[C@@H](NS(=O)(=O)N1CCN(c2ccc(C#Cc3ccc4[nH]c(=O)n(Cc5ccc(Cl)cc5)c(=O)c4c3)cc2)CC1)C(=O)O [III-6, (R)-2-(4-{4-[3-(4-chrolobenzyl)-2,4-dioxo-1,2,3,4-tetrahydroquinazolin-6-ylethynyl]-phenyl}-piperazine-1-sulfonylamino)-3-methylbutanoic acid]",pIC50,MMP-13,7.55
same,pIC50,MMP-9,< 5.00
same,pIC50,MMP-2,< 5.00
"CC(=O)c1ccc(Cl)c2ccc(C#Cc3ccc(N4CCN(S(=O)(=O)N[C@H](C)C(=O)O)CC4)cc3)cc12 [III-10, (R)-2-{4-[4-(8-acetyl-5-chrolonaphthalen-2-ylethynyl)-phenyl]-piperazine-1-sulfonylamino}-proponic acid]",pIC50,MMP-13,7.89
same,pIC50,MMP-9,< 5.00
same,pIC50,MMP-2,< 5.00
"C[C@@H](NS(=O)(=O)N1CCN(c2ccc(C#Cc3cccc(-c4ncc(-c5ccc(F)cc5)o4)c3)cc2)CC1)C(=O)O [III-12, (R)-2-[4-(4-{3-[5-(4-fluorophenyl)-oxazol-2-yl]-phenylethynyl}-phenyl)-piperazine-1-sulfonylamino]-proponic acid]",pIC50,MMP-13,8.40
same,pIC50,MMP-9,< 5.00
same,pIC50,MMP-2,< 5.00
"CC(C)CON=Cc1cccc2ccc(C#Cc3ccc(N4CCN(S(=O)(=O)N[C@H](C)C(=O)O)CC4)cc3)cc12 [III-17, (R)-2-(4-{4-[8-(isobutoxyiminomethyl)-naphthalen-2-ylethynyl]-phenyl}-piperazine-1-sulfonylamino)-proponic acid]",pIC50,MMP-13,7.60
same,pIC50,MMP-9,< 5.00
same,pIC50,MMP-2,< 5.00
"CC(=O)c1cccc2ccc(C#Cc3ccc(N4CCN(S(=O)(=O)N[C@@H](CO)C(=O)O)CC4)cc3)cc12 [III-24, (S)-2-{4-[4-(8-acetylnaphthalen-2-ylethynyl)-phenyl]-piperazine-1-sulfonylamino}-3-hydroxyproponic acid]",pIC50,MMP-13,7.59
same,pIC50,MMP-9,< 5.00
same,pIC50,MMP-2,< 5.00
"CC(C)[C@@H](NS(=O)(=O)N1CCN(c2ccc(C#Cc3ccc4ccn(Cc5ccccc5)c(=O)c4c3)cc2)CC1)C(=O)O [III-27, (R)-2-{4-[4-(2-benzyl1-oxo-1,2-dihydroisoquinolin-7-ylethynyl)-phenyl]-piperazine-1-sulfonylamino}-3-methylbutanoic acid]",pIC50,MMP-13,7.72
same,pIC50,MMP-9,< 5.00
same,pIC50,MMP-2,< 5.00
"CC(C)[C@@H](NS(=O)(=O)N1CCN(c2ccc(C#Cc3cc(C(=O)NCc4ccccc4)c(=O)n(C)c3)cc2)CC1)C(=O)O [III-30, (R)-2-{4-[4-(5-benzylcarbamoyl-1-methyl-6-oxo-1,6-dihydropyridin-3-ylethynyl)-phenyl]-piperazine-1-sulfonylamino}-3-methylbutanoic acid]",pIC50,MMP-13,7.66
same,pIC50,MMP-9,< 5.00
same,pIC50,MMP-2,5.00 to 6.00
"CC(C)[C@@H](NS(=O)(=O)N1CCN(c2ccc(C#Cc3ccnc(C(=O)NCc4ccc(N5CCCC5=O)cc4)c3)cc2)CC1)C(=O)O [III-37, (R)-3-methyl-2-[4-(4-{2-[4-(2-oxopyrrolidine-1-yl)-benzylcarbamoyl]-pyridin-4-ylethynyl}-phenyl)-piperazine-1-sulfonylamino]-butanoic acid]",pIC50,MMP-13,9.00
same,pIC50,MMP-9,< 5.00
same,pIC50,MMP-2,6.00 to 7.00
"C/C=C/c1cccc2ccc(C#Cc3ccc(N4CCN(S(=O)(=O)N[C@H](C)C(=O)O)CC4)cc3)cc12 [III-38, (R)-2-(4-{4-[((E)-8-propenyl)-naphthalen-2-ylethynyl]-phenyl}-piperazine-1-sulfonylamino)-proponic acid]",pIC50,MMP-13,7.54
same,pIC50,MMP-9,< 5.00
same,pIC50,MMP-2,< 5.00
"CCCCC(=O)c1cn(C)c2ccc(C#Cc3ccc(N4CCN(S(=O)(=O)N[C@H](C)C(=O)O)CC4)cc3)cc12 [III-45, (R)-2-{4-[4-(1-methyl-3-pentanoyl-1H-indol-5-ylethynyl)-phenyl]-piperazine-1-sulfonylamino}-proponic acid]",pIC50,MMP-13,7.89
same,pIC50,MMP-9,< 5.00
same,pIC50,MMP-2,< 5.00
"C[C@@H](NS(=O)(=O)N1CCN(c2ccc(C#Cc3ccc4c(c3)c(-c3ncco3)cn4C)cc2)CC1)C(=O)O [III-46, (R)-2-{4-[4-(1-methyl-3-oxazol-2-yl-1H-indol-5-ylethynyl)-phenyl]-piperazine-1-sulfonylamino}-proponic acid]",pIC50,MMP-13,7.74
same,pIC50,MMP-9,< 5.00
same,pIC50,MMP-2,< 5.00
"C[C@H](NS(=O)(=O)N1CCN(c2ccc(C#Cc3ccnc(C(=O)NCc4ccc(Cl)cc4)c3)cc2)CC1)C(=O)O [III-59, (S)-2-(4-{4-[2-(4-chrolobenzylcarbamoyl)-pyridin-4-ylethynyl]-phenyl}-piperazine-1-sulfonylamino)-proponic acid]",pIC50,MMP-13,8.22
same,pIC50,MMP-9,< 5.00
same,pIC50,MMP-2,< 5.00
"CCC[C@H](NS(=O)(=O)N1CCN(c2ccc(C#Cc3ccnc(C(=O)NCc4ccc(Cl)cc4)c3)cc2)CC1)C(=O)O [III-60, (S)-2-(4-{4-[2-(4-chrolobenzylcarbamoyl)-pyridin-4-ylethynyl]-phenyl}-piperazine-1-sulfonylamino)-pentanoic acid]",pIC50,MMP-13,8.22
same,pIC50,MMP-9,< 5.00
same,pIC50,MMP-2,< 5.00

# Reference: US20100099676A1 (SHIONOGI & CO., LTD., priority 2006, published 2010)
